A short description of the test: 12 week lifestyle plus metformin intervention in IFG subjects. The test is classed as in vivo, human. Conditions: 12 weeks lifestyle + metformin 2 g/day, 33 IFG subjects. The source says:
33 subjects with IFG underwent a 12 week intervention including both lifestyle (diet and exercise) changes and drug (metformin, dose: 2 g/day) therapy. At baseline, this study was 49% female with a mean age of 54 and mean BMI of 30.9.

These results are taken from patent publication US12320798B2, “Diagnostic methods, therapeutic agents and uses thereof” (Metabolon, Inc., priority 2015, dated 2025).

The structures appear in SMILES notation.

Take `CN(C)C(=N)N=C(N)N` [metformin]: the “% Decrease from baseline, 2hPG” value was determined as 13.0%; the “% Decrease from baseline, FPG” value is listed as 9.4%; the “% Decrease from baseline, Weight” value stood at 6.8%.
